Laboratory results: PMC6934184, “Selective DNA-PKcs inhibition extends the therapeutic index of localized radiotherapy and chemotherapy” (The Journal of Clinical Investigation, 2019)

Target: T1, PAK6 (Homo sapiens, UniProt Q9NQU5)
T1 construct: purchased Thermo Fisher Scientific (Life Technologies) SelectScreen
Assay: SelectScreen Z'LYTE
Type: biochemical
Outline: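 SelectScreen broad panel; activity (Z'LYTE, Adapta) plus binding formats. ATP: Km app for CSF1R Z'LYTE; 10 for CAMK1 Adapta. Readout = % per kinase.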

T1 sequence (Q9NQU5 whole entry): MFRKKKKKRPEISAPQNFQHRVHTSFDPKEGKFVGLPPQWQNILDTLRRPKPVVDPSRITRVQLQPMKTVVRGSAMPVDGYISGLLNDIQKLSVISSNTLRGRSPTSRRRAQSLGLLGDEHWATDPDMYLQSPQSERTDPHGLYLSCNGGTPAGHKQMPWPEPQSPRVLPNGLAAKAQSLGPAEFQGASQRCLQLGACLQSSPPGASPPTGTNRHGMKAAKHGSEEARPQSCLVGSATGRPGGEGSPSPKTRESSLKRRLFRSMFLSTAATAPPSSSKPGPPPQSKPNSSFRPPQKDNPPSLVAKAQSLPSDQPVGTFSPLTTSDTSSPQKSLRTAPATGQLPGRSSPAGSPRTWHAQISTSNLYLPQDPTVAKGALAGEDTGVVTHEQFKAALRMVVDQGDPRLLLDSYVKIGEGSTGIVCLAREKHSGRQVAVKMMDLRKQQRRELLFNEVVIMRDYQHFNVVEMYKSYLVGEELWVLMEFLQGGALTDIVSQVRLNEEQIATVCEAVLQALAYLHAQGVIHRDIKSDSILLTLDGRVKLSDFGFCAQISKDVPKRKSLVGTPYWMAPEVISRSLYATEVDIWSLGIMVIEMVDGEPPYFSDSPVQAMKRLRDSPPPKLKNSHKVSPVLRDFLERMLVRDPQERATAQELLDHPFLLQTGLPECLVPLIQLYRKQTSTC

CN(C(=O)CN1CCOCC1)c1ccc2sc3c(-c4cccc5c(=O)cc(N6CC7CCC(C6)O7)oc45)cccc3c2c1 [NU5455]
inhibition at 1 µM: 3%
